Assay results from ChEMBL document CHEMBL5032529, “Synthesis and evaluation of tetrahydroisoquinoline derivatives against Trypanosoma brucei rhodesiense” (Eur J Med Chem, 2021).

Legend:
[1] = tested on: Trypanosoma brucei rhodesiense; experiment: Antitrypanosomal activity against Trypanosoma brucei rhodesiense STIB900 assessed as parasite growth inhibition measured after 72 hrs by alamar blue dye based spectrofluorimetric analysis; assay type: functional, organism-based; conditions: STIB900, 72 h
Vero = experiment: Cytotoxicity against African green monkey Vero cells assessed as reduction in cell viability measured after 72 hrs by SRB assay; assay type: cell-based; conditions: Chlorocebus sabaeus
[2] = Selectivity index, ratio of IC50 for cytotoxicity against African green monkey Vero cells to IC50 for antitrypanosomal activity against Trypanosoma brucei rhodesiense STI B900; assay type: toxicity, cell-based; conditions: read-out: Ratio IC50

Structure (SMILES) | IC50 [1] [µM] | IC50 (Vero) [µM] | selectivity ratio [2]
CC1(C)N=C(N)N=C(N)N1OCCCOc1cc(Cl)c(Cl)cc1Cl | 0.25 | > 10 | > 40
CN1Cc2ccc(OCc3ccccc3)cc2[C@@H](OCc2ccccc2)C1 | 2.8 | 23.5 | 8.4
OC1CCCc2ccc(OCc3ccccc3)cc21 (stereo unspecified) | 65.9 | 39 | 0.6
Oc1cccc2c1CNCC2O (stereo unspecified) | > 100 | > 100 | –
CN1Cc2ccc(OCCCn3ccnc3[N+](=O)[O-])cc2[C@@H](O)C1 | 21.7 | > 50 | > 2.3
CN1Cc2ccc(OCc3ccc(Oc4ccc(F)cc4)cc3)cc2[C@@H](O)C1 | 2.7 | 5.6 | 2.1
CN1CCc2cc(OCc3ccc(-c4ccccc4)cc3)ccc2C1 | 2.3 | 16.5 | 7.2
COc1cccc2c1CN(C)C[C@@H]2O | > 100 | > 100 | –
CCN1Cc2ccc(O)cc2C(O)C1 (stereo unspecified) | > 100 | > 100 | –
CN1CCc2cc(OCc3ccccc3)ccc2C1 | 4.4 | > 100 | > 22.7
CN1CCc2cc(Oc3ccccc3)ccc2C1 | 19.8 | > 100 | > 5.7
COc1ccc(COc2ccc3c(c2)[C@@H](O)CN(C)C3)cc1 | 17.5 | > 50 | > 2.9
CN1Cc2c(OCc3ccc(-c4ccccc4)cc3)cccc2[C@@H](O)C1 | 3.1 | > 50 | > 16
OC1CN(Cc2ccccc2)Cc2ccc(OCc3ccc(-c4ccccc4)cc3)cc21 (stereo unspecified) | 2.7 | 14.8 | 5.5
CN1Cc2ccc(O)cc2[C@@H](OCc2ccc(-c3ccccc3)cc2)C1 | 6.4 | > 50 | > 7.8
OC1CNCc2c(OCc3ccc(-c4ccccc4)cc3)cccc21 (stereo unspecified) | 2.7 | 21.6 | 8
CN1Cc2ccc(OCc3ccccc3)cc2[C@@H](O)C1 | 25.6 | > 100 | > 3.9
CN1Cc2ccc(OCc3ccc(Oc4ccccc4)cc3)cc2[C@@H](O)C1 | 2.7 | 3.4 | 1.3
Cc1ccccc1COc1ccc2c(c1)[C@@H](O)CN(C)C2 | 20.7 | > 100 | > 4.8
CN1Cc2ccc(O)cc2[C@@H](OCCC2CCCCC2)C1 | 19.1 | > 50 | > 2.6
Oc1ccc2c(c1)C(O)CNC2 (stereo unspecified) | > 100 | > 100 | –
CN1Cc2ccc(OCc3ccc(Br)cc3)cc2[C@@H](O)C1 | 2.5 | 37 | 14.8
CN1Cc2ccc(OCCC3CCCCC3)cc2[C@@H](O)C1 | 2.5 | > 50 | > 20
COc1cccc(-c2cccc(COc3ccc4c(c3)[C@@H](O)CN(C)C4)c2)c1 | 2.9 | 24.3 | 8.4
CN1CCc2cc(-c3ccc(-c4ccccc4)cc3)ccc2C1 | 0.27 | 15.6 | 57.8
CN(C)CCOc1ccc2c(c1)[C@@H](O)CN(C)C2 | > 50 | > 50 | –

Structure (SMILES) | IC50 [1] [µM] | IC50 (Vero) [µM] | selectivity ratio [2]
OC1CN(Cc2ccccc2)Cc2ccc(OCc3ccccc3)cc21 (stereo unspecified) | 8.4 | 31.8 | 3.8
CN1CCc2cc(OCCC3CCCCC3)ccc2C1 | 2.9 | 25 | 8.6
OC1CNCc2ccc(OCc3cccc(Br)c3)cc21 (stereo unspecified) | 3.33 | 54.3 | 16.3
CN1Cc2ccc(OCc3ccc(-c4ccc5ccccc5c4)cc3)cc2[C@@H](O)C1 | 0.24 | 0.31 | 1.3
CN1Cc2ccc(OCc3ccc([N+](=O)[O-])cc3)cc2[C@@H](O)C1 | 16.9 | > 50 | > 3
CN1Cc2ccc(OCc3cccc(Br)c3)cc2[C@@H](O)C1 | 2.2 | 60.3 | 27.4
CN1Cc2ccc(OCCCN3CCOCC3)cc2[C@@H](O)C1 | 27.6 | > 50 | > 1.8
CCCCCCCCCCCCOc1ccc2c(c1)[C@@H](O)CN(C)C2 | 2.4 | 18.3 | 7.6
CN1Cc2ccc(O)cc2[C@@H](OCc2ccccc2)C1 | > 50 | > 50 | –
OC1CNCc2c(OCc3ccccc3)cccc21 (stereo unspecified) | 26.2 | > 50 | > 1.9
CN1Cc2ccc(OCCCc3ccccc3)cc2[C@@H](O)C1 | 18.7 | > 50 | > 2.7
CN1Cc2c(OCc3ccccc3)cccc2[C@@H](O)C1 | 69.8 | > 100 | > 1.4
OC1CNCc2ccc(OCc3ccccc3)cc21 (stereo unspecified) | 17.4 | > 50 | > 2.9
CN1Cc2ccc(OCCc3ccccc3)cc2[C@@H](O)C1 | 17.9 | > 50 | > 2.8
CN1Cc2ccc(OCC3CCNCC3)cc2[C@@H](O)C1 | > 100 | > 100 | –
CN1Cc2ccc(OCCCn3cnc([N+](=O)[O-])c3)cc2[C@@H](O)C1 | > 50 | > 50 | –
CN1Cc2ccc(OCCCN3CCNCC3)cc2[C@@H](O)C1 | > 100 | > 100 | –
CCCN1Cc2ccc(O)cc2C(O)C1 (stereo unspecified) | > 100 | > 100 | –
CN1Cc2c(O)cccc2[C@@H](O)C1 | > 100 | > 100 | –
OC1CNCc2ccc(OCCC3CCCCC3)cc21 (stereo unspecified) | 2.5 | > 50 | > 20
CN1Cc2ccc(OCc3cccc(-c4ccc(Cl)cc4)c3)cc2[C@@H](O)C1 | 2.9 | 27.3 | 9.4
CN1Cc2ccc(OCc3ccc(-c4cccc(Cl)c4)cc3)cc2[C@@H](O)C1 | 2.8 | 25.5 | 9.1
CCCCCCCCCCCC1c2ccc(O)cc2[C@@H](O)CN1C (stereo partly specified) | 0.39 | – | –
OC1CCCc2ccc(OCc3ccc(-c4ccccc4)cc3)cc21 (stereo unspecified) | > 100 | > 100 | –
CN1CCc2cc(OCCCN3CCOCC3)ccc2C1 | 25.9 | > 50 | > 1.9
CN1Cc2ccc(OC(c3ccccc3)(c3ccccc3)c3ccccc3)cc2[C@@H](O)C1 | 20.8 | 87.9 | 4.2

Structure (SMILES) | IC50 [1] [µM] | IC50 (Vero) [µM] | selectivity ratio [2]
CN1CCc2cc(-c3ccc4ccccc4c3)ccc2C1 | 2.7 | 24.1 | 8.9
COc1cccc(-c2ccc(COc3ccc4c(c3)[C@@H](O)CN(C)C4)cc2)c1 | 2.8 | 10.8 | 3.9
OC1CNCc2ccc(OCc3ccc(-c4ccccc4)cc3)cc21 (stereo unspecified) | 0.25 | 20.8 | 83.2
COCCOCOc1ccc2c(c1)[C@@H](O)CN(C)C2 | > 50 | > 50 | –
COc1ccc2c(c1)[C@@H](O)CN(C)C2 | > 100 | > 100 | –
Oc1ccc2c(c1)C(O)CCC2 (stereo unspecified) | > 100 | > 100 | –
Cc1cccc(COc2ccc3c(c2)[C@@H](O)CN(C)C3)c1 | 20.3 | > 50 | > 2.5
Oc1ccc2c(c1)C(O)CN(Cc1ccccc1)C2 (stereo unspecified) | 70.5 | > 100 | > 1.4
Cc1ccccc1COc1ccc2c(c1)C(O)CNC2 (stereo unspecified) | 3.26 | > 25 | > 7.7
CN1Cc2ccc(O[Si](c3ccccc3)(c3ccccc3)C(C)(C)C)cc2[C@@H](O)C1 | 2.8 | 19.1 | 6.8
CN1Cc2ccc(OCc3cccnc3)cc2[C@@H](O)C1 | > 50 | > 50 | –
CN1Cc2ccc(OCc3ccc(-c4ccccc4)cc3)cc2[C@@H](O)C1 | 2.9 | 23 | 7.9
CN1Cc2ccc(OCC3CCCCC3)cc2[C@@H](O)C1 | 2.8 | 65.6 | 23.4
Oc1ccc2c(c1)C(O)CN(Cc1ccc(-c3ccccc3)cc1)C2 (stereo unspecified) | 5.4 | > 50 | > 9.3
CN1Cc2ccc(OCc3ccc(-c4ccccc4)cc3)cc2[C@@H](OCc2ccc(-c3ccccc3)cc2)C1 | 2.8 | > 10 | > 3.6
CN1CCc2cc(-c3ccccc3)ccc2C1 | 3 | > 50 | > 16.7
CN1Cc2ccc(OCCOc3ccccc3)cc2[C@@H](O)C1 | 17.9 | > 100 | > 5.6
CN1CCc2cc(Oc3ccc(-c4ccccc4)cc3)ccc2C1 | 2.7 | 22.3 | 8.3
CN1CCc2cc(O)ccc2C1 | > 100 | > 100 | –
CN1Cc2ccc(OCc3ccc(-c4ccc(Cl)cc4)cc3)cc2[C@@H](O)C1 | 0.28 | 21.7 | 77.5
CN1Cc2c(OCCC3CCCCC3)cccc2[C@@H](O)C1 | 13 | 62.7 | 4.8
CN1Cc2ccc(OCCC3CCCCC3)cc2[C@@H](OCCC2CCCCC2)C1 | 2.3 | 23.6 | 10.3
CN1Cc2ccc(OCc3ccc(-c4ccc(-c5ccccc5)cc4)cc3)cc2[C@@H](O)C1 | 0.28 | 0.28 | 1
CN1Cc2ccc(OCc3ccc(-c4ccc(F)cc4)cc3)cc2[C@@H](O)C1 | 1.4 | 33.8 | 24.1
Cc1c2ccncc2c(C)c2c1[nH]c1ccccc12 [ELLIPTECINE] | – | 2.4 | –
N=C(N)c1ccc(OCCCCCOc2ccc(C(=N)N)cc2)cc1 [PENTAMIDINE] | 0.00707 | – | –
